The test system of data set [1] is male ob/ob mice. Put plainly: Hypoglycemic activity in ob/ob mice. The settings on record: fasting, relative to control group. In kind it is in vivo. Here is the method: A 0.5% methyl cellulose suspension of the test compound was orally administered to 6- to 9-week-old male ob/ob mice grouped according to the glucose level. Only a 0.5% methyl cellulose solution was administered to a control group.
Blood was drawn under fasting condition, which condition was started simultaneously with the administration by means of removing the feed. The blood was drawn under anesthesia from the orbital vein 3 hours after the administration. The blood thus taken was centrifuged and the glucose level was measured from the obtained plasma by the hexokinase method (glucose measurement kit). For evaluation, the percentage (%) of decrease in the glucose level of the test compound-administered group relative to the control group is shown.

Data set [2] has as its target T1, Recombinant human protein tyrosine phosphatase 1B (Homo sapiens, UniProt P18031).
T1 construct: purchased UBI
T1 sequence (P18031 1-435): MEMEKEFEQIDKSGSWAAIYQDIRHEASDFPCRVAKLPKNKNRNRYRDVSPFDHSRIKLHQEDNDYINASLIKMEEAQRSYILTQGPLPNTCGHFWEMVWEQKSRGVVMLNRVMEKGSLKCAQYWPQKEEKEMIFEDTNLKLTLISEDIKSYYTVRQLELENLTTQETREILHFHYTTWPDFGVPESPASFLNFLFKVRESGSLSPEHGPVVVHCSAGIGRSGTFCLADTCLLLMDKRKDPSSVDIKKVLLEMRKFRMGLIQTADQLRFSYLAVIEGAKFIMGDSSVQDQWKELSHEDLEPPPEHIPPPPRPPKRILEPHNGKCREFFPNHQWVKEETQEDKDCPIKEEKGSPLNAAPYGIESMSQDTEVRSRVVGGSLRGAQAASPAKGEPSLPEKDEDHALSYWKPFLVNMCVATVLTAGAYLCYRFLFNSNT
Put plainly: Protein tyrosine phosphatase 1B inhibitory activity (malachite green, phosphorylated insulin receptor peptide substrate). As to conditions: recombinant human PTP1B, 60 min room temperature, absorbance 650 nm. In kind it is biochemical. Here is the method: Preparation of Assay Buffer:
A 50 mM Tris-HCl buffer (pH 7.5), 50 mM NaCl and 3 mM dithiothreitol (DTT) were prepared.
[…] 0.1, 0.3, 1, 3 and 10 μM of the test compound were prepared and diluted with the above-mentioned assay buffer to the final dimethyl sulfoxide (DMSO) concentration of not more than 1%. As the control, the assay buffer was used.
Preparation of Substrate:
Recombinant human protein tyrosine phosphatase 1B (manufactured by UBI) was diluted with the above-mentioned assay buffer (1.2 ng/25 μl).
The sample (10 μl) prepared as mentioned above and a substrate (25 μl) were successively added to a 96 well plate, and the enzyme (25 μl) prepared as mentioned above was added and mixed. The mixture was incubated at room temperature for 60 min and a malachite green (120 μl, Biomol), which is a color reagent, was added. The mixture was further incubated at room temperature for 20 min to allow for color development. An absorbance at 650 nm was measured on a plate reader based on which the protein tyrosine phosphatase 1B inhibitory activity of the test compound was evaluated.

SMILES strings stand for the structures.

Broadly, the IC50 is the concentration that inhibits the measured activity by half. As to `CCC(CC)c1ccc(N(Cc2ccc(-c3csc(COc4cncc(C(=O)O)c4)n3)cc2)C(C)C)cc1` [Example 1-1, 5-{4-[4-({[4-(1-Ethylpropyl)phenyl]isopropylamino}methyl)-phenyl]thiazol-2-ylmethoxy}nicotinic acid], the “blood glucose decreasing rate (%) 3 hours later” value in data set [1] (dose 1 mg/kg oral) is 45%. The IC50 in data set [2] amounted to 0.28 µM.
Take `CCCC(CCC)c1ccc(N(C)Cc2ccc(-c3csc(CN(C)S(=O)(=O)c4ccc(C(=O)O)cc4)n3)cc2)cc1` [Example 1-15]: in data set [1] (dose 1 mg/kg oral), the “blood glucose decreasing rate (%) 3 hours later” value is reported as 35%. Besides, the IC50 in data set [2] was found to be 0.13 µM.
As usually defined, the melting point is the temperature of the solid-liquid transition. `CCCC(CCC)c1ccc(N(C)Cc2ccc(-c3csc(N(C)Cc4ccc(C(=O)O)cc4)n3)cc2)cc1` [Example 1-19] yielded a melting point of 110 to 113 °C. Besides, the “blood glucose decreasing rate (%) 3 hours later” value in data set [1] (dose 1 mg/kg oral) worked out at 35%. Besides, in data set [2], the IC50 stood at 0.1 µM.
For `CCC(CC)c1ccc(N(Cc2ccc(-c3csc(CN(CC(=O)O)CC(=O)Nc4ccc(C(C)C)cc4)n3)cc2)C(C)C)cc1` [Example 1-78], the “blood glucose decreasing rate (%) 3 hours later” value in data set [1] (dose 3 mg/kg oral) is recorded as 24%. Moreover, the 50% inhibitory concentration (IC50) in data set [2] was found to be 0.18 µM.
Turning to `CCCC(CCC)c1ccc(CN(C)c2ccc(-c3csc(CN(CC(=O)O)Cc4ccccc4)n3)cc2)cc1` [Example 3-36], the “blood glucose decreasing rate (%) 3 hours later” value in data set [1] (dose 3 mg/kg oral) is 52%. Besides, in data set [2], the IC50 came out at 0.1 µM.
Consider `CN(Cc1ccc([C@H]2CC[C@H](C)CC2)cc1)c1ccc(-c2csc(CN(CC(=O)O)Cc3ccccn3)n2)cc1` [Example 3-52], for which the “blood glucose decreasing rate (%) 3 hours later” value in data set [1] (dose 1 mg/kg oral) is 28%. The IC50 in data set [2] came to 0.54 µM.
With `CN(Cc1ccc([C@H]2CC[C@H](C)CC2)cc1)c1ccc(-c2csc(COC(=O)N(CC(=O)O)Cc3ccccc3)n2)cc1` [Example 3-108], the “blood glucose decreasing rate (%) 3 hours later” value in data set [1] (dose 1 mg/kg oral) amounted to 29%. Besides, the half-inhibitory concentration (IC50) in data set [2] amounted to 0.16 µM.
In the case of `CCCC(CCC)c1ccc(OCc2ccc(-c3csc(CN(CC(=O)O)C(=O)c4ccc(C(C)C)cc4)c3)cc2)cc1` [Example 4-70], the melting point fell in the range of 109 to 111 °C. For the same compound, in data set [2], the IC50 came out at 0.17 µM.
The corresponding values for `CCCC(CCC)c1ccc(OCc2cccc(-c3csc(CN4CCc5ccc(C(=O)O)cc5C4)c3)c2)cc1` [Example 4-73] are 69.4 to 78.3 °C and 0.19 µM.
The corresponding values for `C[C@H]1CC[C@H](c2ccc(COc3ccc(-c4ccc(CN5CCN(c6ccc(C(=O)O)cc6)CC5)s4)cc3)cc2)CC1` [Example 4-74] are 242.4 to 265.9 °C and 0.11 µM.
In turn, `CCCC(CCC)c1ccc(OCc2ccc(-c3ccc(CN(CC(=O)O)Cc4cc(C(F)(F)F)ccc4Cl)s3)cc2)cc1` [Example 4-75] yielded a melting point of 92.6 to 94.7 °C. In addition, the IC50 in data set [2] is less than 0.1 µM.
Compound `CCCC(CCC)c1ccc(OCc2ccc(-c3ccc(CN(CC(=O)O)Cc4ccc(OC)cc4)s3)cc2)cc1` [Example 4-77] gave a melting point of 195.7 to 196.8 °C. Moreover, in data set [2], the half-maximal inhibitory concentration (IC50) amounted to 0.4 µM.
`CCCC(CCC)c1ccc(OCc2ccc(-c3ccc(CN(CC(=O)O)Cc4ccc(SC)cc4)s3)cc2)cc1` [Example 4-78] yielded a melting point of 202.7 to 204.3 °C. In addition, the IC50 in data set [2] came to 0.38 µM.
For `C[C@H]1CC[C@H](c2ccc(COc3ccc(-c4ccc(CN(CC5CCCCC5)S(=O)(=O)c5ccc(C(=O)O)cc5)s4)cc3)cc2)CC1` [Example 4-79], the melting point lay within 234 to 241.8 °C. Moreover, the half-maximal inhibitory concentration (IC50) in data set [2] is less than 0.1 µM.
The corresponding values for `C[C@H]1CC[C@H](c2ccc(COc3ccc(-c4ccc(CN(CC5CCCCC5)C(=O)Nc5ccc(C(=O)O)cc5)s4)cc3)cc2)CC1` [Example 4-80] are 168 to 169.9 °C and less than 0.1 µM.
The corresponding values for `CCCC(CCC)c1ccc(OCc2ccc(-c3ccc(CN(CC(=O)OCC)CC(=O)c4ccc(N5CCCC5)cc4)s3)cc2)cc1.Cl` [Example 4-82] are 75.3 to 79.3 °C and 0.48 µM.
For `O=C(O)CCN(Cc1ccccc1)Cc1ccc(-c2ccc3c(c2)CCC3Cc2ccc(C3CCCCC3)cc2)s1` (stereo not shown) [Example 4-84], in that order: 121 to 128 °C and 0.27 µM.
`CCCC(CCC)c1ccc(OCc2ccc(-c3csc(CN(CC(=O)O)Cc4ccc5ccccc5n4)c3)cc2)cc1` [Example 4-87] came in with a melting point of 137.3 to 138.7 °C. Besides, the IC50 in data set [2] was 0.12 µM.
Regarding `CCCC(CCC)c1ccc(OCc2ccc(-c3csc(CN(CC(=O)O)Cc4nc5ccccc5s4)c3)cc2)cc1` [Example 4-88], the melting point was 150.9 to 152.8 °C. In addition, in data set [2], the IC50 was less than 0.1 µM.
For `CCCC(CCC)c1ccc(OCc2ccc(-c3csc(CN(CC(=O)O)Cc4nccn4Cc4ccccc4)c3)cc2)cc1` [Example 4-89], in that order: 135.2 to 136 °C and 0.49 µM.
In turn, `CCCC(CCC)c1ccc(OCc2ccc(-c3csc(CN(CC(=O)O)Cc4ccc5[nH]ccc5n4)c3)cc2)cc1` [Example 4-90] displayed a melting point of 203.4 to 205.3 °C. Also, in data set [2], the 50% inhibitory concentration (IC50) stood at 0.16 µM.
The corresponding values for `CCCC(CCC)c1ccc(OCc2ccc(-c3csc(CN(CC(=O)O)Cc4ccc(-n5ccnc5)cc4)c3)cc2)cc1` [Example 4-91] are 167.5 to 169.9 °C and 0.17 µM.
For `CCCC(CCC)c1ccc(OCc2ccc(-c3csc(CN(CC(=O)O)Cc4cc5ccccc5o4)c3)cc2)cc1` [Example 4-92], in that order: 146.7 to 148.9 °C and less than 0.1 µM.
For `CCCC(CCC)c1ccc(OCc2ccc(-c3csc(CN(CC(=O)O)Cc4ccc(-c5cccs5)s4)c3)cc2)cc1` [Example 4-93], in that order: 203.8 to 206.2 °C and less than 0.1 µM.
`CCCC(CCC)c1ccc(OCc2ccc(-c3ccc(CN(CC(=O)O)Cc4c[nH]c(-c5ccccc5)n4)s3)cc2)cc1` [Example 4-94] yielded a melting point of 131.8 to 137.6 °C. Also, the IC50 in data set [2] turned out to be 0.12 µM.
In the case of `CCCC(CCC)c1ccc(OCc2ccc(-c3ccc(CN(CC(=O)O)Cc4c[nH]nc4-c4ccccc4)s3)cc2)cc1` [Example 4-95], the melting point fell in the range of 145.9 to 149.3 °C. Further, the 50% inhibitory concentration (IC50) in data set [2] is 0.28 µM.
`CCCC(CCC)c1ccc(OCc2ccc(-c3ccc(CN(CC(=O)O)Cc4nc5ccccc5o4)s3)cc2)cc1` [Example 4-96] gave a melting point of 127.4 to 130 °C. Further, in data set [2], the IC50 stood at 0.12 µM.
For `CCCC(CCC)c1ccc(OCc2ccc(-c3ccc(CN(CC(=O)O)Cc4cc5ccccc5s4)s3)cc2)cc1` [Example 4-97], in that order: 202.3 to 204.4 °C and 0.11 µM.
For the compound `CCCC(CCC)c1ccc(OCc2ccc(-c3ccc(CN(CC(=O)O)Cc4cc(-c5ccccc5)cs4)s3)cc2)cc1` [Example 4-98], the melting point lay within 181.4 to 184.5 °C. For the same compound, in data set [2], the IC50 is less than 0.1 µM.
The corresponding values for `CCCC(CCC)c1ccc(OCc2ccc(-c3ccc(CN(CC(=O)O)c4nc5ccccc5s4)s3)cc2)cc1` [Example 4-99] are 104.4 to 107.2 °C and less than 0.1 µM.
Compound `CCCC(CCC)c1ccc(OCc2ccc(-c3ccc(CN(CC(=O)O)S(=O)(=O)c4ccc(Cl)s4)s3)cc2)cc1` [Example 4-100] registered a melting point of 151.2 to 154.4 °C. Further, in data set [2], the IC50 is less than 0.1 µM.
The corresponding values for `CCCC(CCC)c1ccc(OCc2ccc(-c3ccc(CN(CC(=O)O)Cc4nc5ccccc5n4CC(=O)N(CC)CC)s3)cc2)cc1` [Example 4-101] are 194.8 to 197 °C and 0.1 µM.
In the case of `Cc1ccc(OCc2ccc(C3CCCCC3)cc2)c(-c2csc(CN(C)[C@@H](Cc3ccccc3)C(=O)O)c2)c1` [Example 4-102], the melting point was in the range of 117 to 123.1 °C. The IC50 in data set [2] was 0.37 µM.
For `Cc1ccc(OCc2ccc(C3CCCCC3)cc2)c(-c2csc(CN(C(=O)C(=O)O)c3ccc4nc(C)sc4c3)c2)c1` [Example 4-104], in that order: 115.9 to 121.1 °C and 0.2 µM.
In the case of `C=CCn1c(CN(CC(=O)O)Cc2ccc(-c3ccc(COc4ccc(C(CCC)CCC)cc4)cc3)s2)nc2ccccc21` [Example 4-106], the melting point lay in the range of 141.2 to 144.1 °C. Besides, the IC50 in data set [2] came out at 0.16 µM.
For `CCCC(CCC)c1ccc(OCc2ccc(-c3ccc(CN(CC(=O)O)c4nc(-c5ccc(Cl)cc5)cs4)s3)cc2)cc1` [Example 4-107], in that order: 116 to 117.6 °C and less than 0.1 µM.
